Where two headings read alike, the source gives them in different places.
Columns and labels:
P70S6K (T412E mutant) = P70S6K (T412E mutant) (Homo sapiens (Human), UniProt P23443, T412E); assay: P70S6K enzyme assay; format: biochemical
Experimental: P70S6K inhibitor compounds are diluted and plated in 96 well plates. […] The reaction is incubated for 90 min at 25° C., before the addition of 10 mM EDTA to stop the reaction. The proportion of substrate and product (phosphorylated) peptide is analysed on a Caliper Life Sciences Lab Chip 3000, using a pressure of −1.4 psi, and upstream and downstream voltages of −3000 and −700 respectively. Product peaks are resolved before substrate peaks on the resulting chromatograms.

His-AKT (Full Length) = His-AKT (Full Length) (Homo sapiens (Human), UniProt P31749); assay: AKT enzyme assay; format: biochemical
Experimental: A TTP Mosquito liquid handling instrument is used to place 125n1 of the appropriate concentration of inhibitor in 100% DMSO (for a dose response curve calculation) into each well of a 384-well plate.
The reaction is incubated for 90 min at 25 C, and then stopped by the addition of 70 μl of Stop buffer (100 mM HEPES pH 7.5, 0.015% Brij-35, 10 mM EDTA (Sigma, E7889)).
The plate is read on a Caliper LC 3000 in an Off-Chip mobility shift assay format, using the following parameters for a 12-sipper chip: screening pressure −2.3 psi, upstream voltage −500, and downstream voltage −3000. These conditions cause unphosphorylated substrate and phosphorylated product peptide to resolve as separate peaks allowing direct measurement of percentage of conversion of substrate to product. The percent conversion can be plotted against concentration of inhibitor to produce a sigmoidal dose response curve, from which an IC50 can be calculated.

His-AKT (Full Length), sequence (P31749 whole entry): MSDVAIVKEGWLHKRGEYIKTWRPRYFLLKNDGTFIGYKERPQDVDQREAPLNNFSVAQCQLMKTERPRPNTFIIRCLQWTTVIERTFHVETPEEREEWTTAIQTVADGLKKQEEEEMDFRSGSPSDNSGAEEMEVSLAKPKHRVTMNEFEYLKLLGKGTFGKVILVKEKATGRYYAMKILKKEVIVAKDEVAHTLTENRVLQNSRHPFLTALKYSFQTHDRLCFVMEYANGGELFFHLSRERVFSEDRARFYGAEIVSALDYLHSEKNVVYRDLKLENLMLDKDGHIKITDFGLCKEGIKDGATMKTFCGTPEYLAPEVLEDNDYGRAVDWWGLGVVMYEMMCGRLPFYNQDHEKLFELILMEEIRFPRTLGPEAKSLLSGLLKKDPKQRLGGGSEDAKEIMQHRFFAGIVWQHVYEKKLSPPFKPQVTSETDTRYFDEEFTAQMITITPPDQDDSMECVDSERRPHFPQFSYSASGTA
P70S6K (T412E mutant), sequence (P23443 whole entry T412E): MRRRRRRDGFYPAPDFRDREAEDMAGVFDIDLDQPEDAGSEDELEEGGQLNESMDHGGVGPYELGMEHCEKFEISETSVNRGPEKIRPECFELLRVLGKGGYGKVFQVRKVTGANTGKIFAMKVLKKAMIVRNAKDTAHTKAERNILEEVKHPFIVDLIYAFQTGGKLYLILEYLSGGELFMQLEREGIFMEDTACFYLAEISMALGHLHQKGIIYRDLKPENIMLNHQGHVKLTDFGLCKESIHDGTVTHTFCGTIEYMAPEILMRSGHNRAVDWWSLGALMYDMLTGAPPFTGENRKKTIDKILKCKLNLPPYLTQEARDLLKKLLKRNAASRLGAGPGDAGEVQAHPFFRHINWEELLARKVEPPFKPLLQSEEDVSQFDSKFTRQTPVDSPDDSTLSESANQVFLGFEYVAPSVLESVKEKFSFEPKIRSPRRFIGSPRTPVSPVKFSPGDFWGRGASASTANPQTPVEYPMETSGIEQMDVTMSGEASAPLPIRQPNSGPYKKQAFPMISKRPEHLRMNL

Row | SMILES | IC50 (P70S6K (T412E mutant); read-out: IC50 p70S6K) | IC50 (His-AKT (Full Length); read-out: IC50 AKT) | IC50 (P70S6K (T412E mutant); read-out: IC50 (p70S6K enzyme)) | IC50 (His-AKT (Full Length); read-out: IC50 (AKT enzyme))
1 | Nc1ncnc(N2CCC(c3nc(-c4ccc(C(F)(F)F)c(F)c4)cn3CCN3CCCC3)CC2)c1Cl [Compound 235] | 10 nM | 1000 nM | – | –
2 | N#Cc1c(N)ncnc1N1CCC(c2nc(-c3ccc(F)c(Cl)c3)cn2CCN2CCCC2)CC1 [Compound 307] | 0.8 nM | 1.5 nM | – | –
3 | CCOc1c(N)ncnc1N1CCC(c2nc(-c3ccc(F)c(C)c3)cn2CCO)CC1 [Compound 396, 2-[2-[1-(6-Amino-5-ethoxy-pyrimidin-4-yl)-piperidin-4-yl]-4-(4-fluoro-3-methyl-phenyl)-imidazol-1-yl]-ethanol] | 3.5 nM | 340 nM | – | –
4 | Nc1ncnc(N2CCC(c3nc(-c4ccc(F)c(C(F)(F)F)c4)cn3CCN3CCC3)CC2)c1N [Compound 284] | 10.6 nM | 51.5 nM | – | –
5 | CCc1c(N)ncnc1N1CCC(c2nc(-c3ccc(F)cc3)cn2CCN2CCOCC2)CC1 [Compound 195, 5-Ethyl-6-{4-[4-(4-fluoro-phenyl)-1-(2-morpholin-4-yl-ethyl)-1H-imidazol-2-yl]-piperidin-1-yl}-pyrimidin-4-ylamine] | 16 nM | > 1000 nM | – | –
6 | CCOc1c(N)ncnc1N1CCC(c2nc(-c3ccc(F)c(C(F)(F)F)c3)cn2CC2CNC2)CC1 [Compound 176, 6-(4-(1-(azetidin-3-ylmethyl)-4-(4-fluoro-3-(trifluoromethyl)phenyl)-1H-imidazol-2-yl)piperidin-1-yl)-5-ethoxypyrimidin-4-amine] | 5.5 nM | 5 nM | – | –
7 | CCc1c(N)ncnc1N1CCC(c2nc(-c3ccc(F)c(C)c3)cn2CCN2CCCC2)CC1 [Compound 297] | 3.9 nM | 6.6 nM | – | –
8 | Nc1ncnc(N2CCC(c3nc(-c4ccc(C(F)(F)F)c(F)c4)cn3CCN3CCCC3)CC2)c1Br [Compound 229] | 6.3 nM | 71 nM | – | –
9 | CC(C)N(C)CCn1cc(-c2ccc(F)c(C(F)(F)F)c2)nc1C1CCN(c2ncnc(N)c2C#N)CC1 [Compound 360, 4-Amino-6-(4-{4-(4-fluoro-3-trifluoromethyl-phenyl)-1-[2-(isopropyl-methyl-amino)-ethyl]-1H-imidazol-2-yl}-piperidin-1-yl)-pyrimidine-5-carbonitrile] | 2.2 nM | 2.7 nM | – | –
10 | CCN(CC)CCn1cc(-c2ccc(F)c(C)c2)nc1C1CCN(c2ncnc(N)c2C(N)=O)CC1 [Compound 349] | 25 nM | 55 nM | – | –
11 | Nc1ncnc(N2CCC(c3nc(-c4ccc(F)cc4)cn3CCN3CCCC3)CC2)c1Cl [Compound 237] | 0.8 nM | 3.3 nM | – | –
12 | CCc1c(N)ncnc1N1CCC(c2nc(-c3ccnc(OC)c3)cn2CCN2CCC2)CC1 [Compound 112, 6-(4-(1-(2-(azetidin-1-yl)ethyl)-4-(2-methoxypyridin-4-yl)-1H-imidazol-2-yl)piperidin-1-yl)-5-ethylpyrimidin-4-amine] | 64.5 nM | 940 nM | – | –
13 | C=C(C)c1c(N)ncnc1N1CCC(c2nc(-c3ccc(F)c(C(F)(F)F)c3)cn2CCN2CCCCC2)CC1 [Compound 212] | 6.7 nM | 16 nM | – | –
14 | C=Cc1c(N)ncnc1N1CCC(c2nc(-c3ccc(F)c(C(F)(F)F)c3)cn2CCN2CCCCC2)CC1 [Compound 65, 6-{4-[4-(4-Fluoro-3-trifluoromethyl-phenyl)-1-(2-piperidin-1-yl-ethyl)-1H-imidazol-2-yl]-piperidin-1-yl}-5-vinyl-pyrimidin-4-ylamine] | 5.5 nM | 12 nM | – | –
15 | NC(=O)c1c(N)ncnc1N1CCC(c2nc(-c3cn[nH]c3)cn2CCN2CCC2)CC1 [Compound 145, 4-amino-6-(4-(1-(2-(azetidin-1-yl)ethyl)-4-(1H-pyrazol-4-yl)-1H-imidazol-2-yl)piperidin-1-yl)pyrimidine-5-carboxamide] | 53 nM | 2200 nM | – | –
16 | Cn1cc(-c2ccc(F)c(C(F)(F)F)c2)nc1C1CCN(c2ncnc(N)c2-c2ccc(C#N)cc2)CC1 [Compound 17, 4-(4-Amino-6-{4-[4-(4-fluoro-3-trifluoromethyl-phenyl)-1-methyl-1H-imidazol-2-yl]-piperidin-1-yl}-pyrimidin-5-yl)-benzonitrile] | 2.7 nM | 2.7 nM | – | –
17 | CCc1c(N)ncnc1N1CCC(c2nc(-c3ccc(F)c(C)c3)cn2CCN(CC)CC)CC1 [Compound 296] | 1.6 nM | 2.6 nM | – | –
18 | Nc1cc(N2CCC(c3nc(-c4ccc(F)c(C(F)(F)F)c4)cn3CCN3CCC3)CC2)ncn1 [Compound 221] | 21 nM | 71 nM | – | –

Row | SMILES | IC50 (P70S6K (T412E mutant); read-out: IC50 p70S6K) | IC50 (His-AKT (Full Length); read-out: IC50 AKT) | IC50 (P70S6K (T412E mutant); read-out: IC50 (p70S6K enzyme)) | IC50 (His-AKT (Full Length); read-out: IC50 (AKT enzyme))
19 | COC/C=C/c1c(N)ncnc1N1CCC(c2nc(-c3ccc(F)c(C(F)(F)F)c3)cn2C)CC1 [Compound 54, 6-{4-[4-(4-Fluoro-3-trifluoromethyl-phenyl)-1-methyl-1H-imidazol-2-yl]-piperidin-1-yl}-5-((E)-3-methoxy-propenyl)-pyrimidin-4-ylamine] | 2.5 nM | 740 nM | – | –
20 | NC(=O)c1c(N)ncnc1N1CCC(c2nc(-c3ccc(F)cc3)cn2CCN2CCCC2)CC1 [Compound 333] | 21 nM | 380 nM | – | –
21 | N#Cc1c(N)ncnc1N1CCC(c2nc(-c3cccc(S(N)(=O)=O)c3)cn2CCN2CCC2)CC1 [Compound 354, 3-[2-[1-(6-Amino-5-cyano-pyrimidin-4-yl)-piperidin-4-yl]-1-(2-azetidin-1-yl-ethyl)-1H-imidazol-4-yl]-benzenesulfonamide] | > 10000 nM | > 10000 nM | – | –
22 | CCc1c(N)ncnc1N1CCC(c2nc(-c3cccc(F)c3)cn2CCN2CCC2)CC1 [Compound 278] | 4.6 nM | 79.5 nM | – | –
23 | CCNCCn1cc(-c2ccc(F)c(C(F)(F)F)c2)nc1C1CCN(c2ncnc(N)c2OC(C)C)CC1 [Compound 174, 6-(4-(1-(2-(ethylamino)ethyl)-4-(4-fluoro-3-(trifluoromethyl)phenyl)-1H-imidazol-2-yl)piperidin-1-yl)-5-isopropoxypyrimidin-4-amine] | 0.44 nM | 0.52 nM | – | –
24 | Nc1ncnc(N2CCC(c3nc(-c4cccc(C(F)(F)F)c4)cn3CCN3CCCC3)CC2)c1Br [Compound 267] | 2.2 nM | 4.2 nM | – | –
25 | COC(=O)c1ccc(-c2c(N)ncnc2N2CCC(c3nc(-c4ccc(F)c(C(F)(F)F)c4)cn3CCN3CCC3)CC2)cc1 [Compound 222] | 11 nM | 43 nM | – | –
26 | Cc1cc(-c2cn(CCNC3CC3)c(C3CCN(c4ncnc(N)c4-c4cn[nH]c4)CC3)n2)ccc1F [Compound 161, 6-(4-(1-(2-(cyclooropylamino)ethyl)-4-(4-fluoro-3-methylphenyl)-1H-imidazol-2-yl)piperidin-1-yl)-5-(1H-pyrazol-4-yl)pyrimidin-4-amine] | 12.9 nM | 150 nM | 12.9 nM | 150 nM
27 | Nc1ncnc(N2CCC(c3nc(-c4ccc(F)c(F)c4)cn3CCN3CCCC3)CC2)c1C1CCC1 [Compound 255] | 6.9 nM | 9.4 nM | – | –
28 | CCc1c(N)ncnc1N1CCC(c2nc(-c3ccnc(C)c3)cn2CCN2CCC2)CC1 [Compound 111, 6-(4-(1-(2-(azetidin-1-yl)ethyl)-4-(2-methylpyridin-4-yl)-1H-imidazol-2-yl)piperidin-1-yl)-5-ethylpyrimidin-4-amine] | 8.7 nM | 106 nM | – | –
29 | Nc1ncnc(N2CCC(c3nc(-c4ccc(F)c(Cl)c4)cn3CCN3CCCC3)CC2)c1Br [Compound 268] | 1.4 nM | 1.8 nM | – | –
30 | CCc1c(N)ncnc1N1CCC(c2nc(-c3ccnc(C(C)C)c3)cn2CCN2CCC2)CC1 [Compound 179, 6-(4-(1-(2-(azetidin-1-yl)ethyl)-4-(2-isopropylpyridin-4-yl)-1H-imidazol-2-yl)piperidin-1-yl)-5-ethylpyrimidin-4-amine] | 1.9 nM | 4.2 nM | – | –
31 | NC(=O)c1c(N)ncnc1N1CCC(c2nc(-c3ccc(F)c(C(F)(F)F)c3)cn2C[C@@H]2CCN2)CC1 [Compound 150, (S)-4-amino-6-(4-(1-(azetidin-2-ylmethyl)-4-(4-fluoro-3-(trifluoromethyl)phenyl)-1H-imidazol-2-yl)piperidin-1-yl)pyrimidine-5-carboxamide] | 10 nM | 220 nM | – | –
32 | N#Cc1c(N)ncnc1N1CCC(c2nc(-c3ccccc3)cn2CCN2CCC2)CC1 [Compound 131, 4-amino-6-(4-(1-(2-(azetidin-1-yl)ethyl)-4-phenyl-1H-imidazol-2-yl)piperidin-1-yl)pyrimidine-5-carbonitrile] | 5.7 nM | 165 nM | – | –
33 | Nc1ncnc(N2CCC(c3nc(-c4ccc(F)c(C(F)(F)F)c4)cn3CCN3CCCCC3)CC2)c1Br [Compound 61, 5-Bromo-6-{4-[4-(4-fluoro-3-trifluoromethyl-phenyl)-1-(2-piperidin-1-yl-ethyl)-1H-imidazol-2-yl]-piperidin-1-yl}-pyrimidin-4-ylamine] | 2.8 nM | 9 nM | – | –
34 | N#Cc1c(N)ncnc1N1CCC(c2nc(-c3ccc(F)c(C(F)(F)F)c3)cn2CCO)CC1 [Compound 357, 4-Amino-6-{4-[4-(4-fluoro-3-trifluoromethyl-phenyl)-1-(2-hydroxy-ethyl)-1H-imidazol-2-yl]-piperidin-1-yl}-pyrimidine-5-carbonitrile] | 0.8 nM | 130 nM | – | –
35 | Nc1ncnc(N2CCC(c3nc(-c4ccc(F)c(C(F)(F)F)c4)cn3CCN3CCC3)CC2)c1Br [Compound 217] | 1.5 nM | 2.3 nM | – | –

Reference: patent publication US9145392B2, “Imidazole amines as modulators of kinase activity” (Merck Patent GmbH, priority 2011, dated 2015)
